Entries after “also recorded” stand apart in the source; their conditions may differ.
Assays:
[1] = tested on: Heloderma suspectum venom; assay: Thrombelastography in human plasma of venom procoagulant activity after isolated exposure of venom to compounds; format: biochemical; details: venom 10 μg/ml in plasma
Method: (§1) The volumes of subsequently described plasmatic and other additives summed to a final volume of 360 μl. Samples were composed of 320 μl of plasma; 16.4 μl of PBS, 20 μl of 200 mM CaCl2), and 3.6 μl of PBS or venom mixture, which were pipetted into a disposable cup in a Thrombelastograph® hemostasis system (Model 5000, Haemonetics Inc., Braintree, MA, USA) at 37° C., and then rapidly mixed by moving the cup up against and then away from the plastic pin five times. The following viscoelastic parameters described previously (see, Nielsen, V. G. J Thromb Thrombolysis 2019, 47, 73-79; Gessner, G.; et al., Eur J Pharmacol 2017, 815, 33-41; Nielsen, V. G.; Wagner, M. T.; Frank, N. Int J Mol Sci 2020, 21, 2082; Lazid, D.; et al., Dalton Trans 2016, 45, 4633; Hanif, M.; et al., ChemPlusChem 2017, 82, 841-847) were measured: time to maximum rate of thrombus generation (TMRTG): this is the time interval (minutes) observed prior to maximum speed of clot growth; maximum rate of thrombus generation (MRTG): this is the maximum velocity of clot growth observed (dynes/cm2/second); and total thrombus generation (TTG, dynes/cm2), the final viscoelastic resistance observed after clot formation.
H. suspectum. This venom was exposed to 0 or 1 mM CORM-3 in the presence of 0 or 100 μM RuCl3 in PBS for at least 5 minutes at room temperature prior to placement into plasma followed immediately with commencement of thrombelastographic analysis. The final concentration of this venom in plasma was 10 μg/ml.
Given the aforementioned, the experimental conditions utilized were: 1) V condition—venom in PBS; 2) Ru(II) condition—venom exposed to CORM-2 or CORM-3; 3) Ru(III) condition—venom exposed to RuCl3; 4) Ru(II+III) condition—venom exposed to CORM-2 or CORM-3 and RuCl3 simultaneously; 5) Pt(II) condition—venom exposed to carboplatin; and 6) Pt+Ru condition—venom exposed to carboplatin and CORM-2. After the 5 minute period at room temperature, 3.6 μl of one of these solutions was added to the plasma sample in the plastic thrombelastograph cup.

[2] = tested on: Oxyuranus microlepidotus venom; assay: as above; format: biochemical; details: venom 1 μg/ml in plasma; for procoagulant activity of venom: venom exposed ≥5 min in PBS to 100 μM CORM-2, 100 μM RuCl3 or both
Method: Thrombelastographic analyses. The volumes of subsequently described plasmatic and other additives summed to a final volume of 360 μl. Samples were composed of 320 μl of plasma; 16.4 μl of PBS, 20 μl of 200 mM CaCl2), and 3.6 μl of PBS or venom mixture, which were pipetted into a disposable cup in a Thrombelastograph® hemostasis system (Model 5000, Haemonetics Inc., Braintree, MA, USA) at 37° C., and then rapidly mixed by moving the cup up against and then away from the plastic pin five times. The following viscoelastic parameters described previously (see, Nielsen V G (2019) J Thromb Thrombolysis 47, 73-79; Gessner G, et al., (2017) Eur J Pharmacol 815, 33-41; Nielsen V G, Wagner M T, Frank N (2020) Int J Mol Sci 21, 2082; Lazić D, Arsenijević A, Puchta R, Bugarčić ŽD, Rilak A (2016) Dalton Trans 45, 4633; Hanif M, et al., (2017) ChemPlusChem 82, 841-847) were measured: time to maximum rate of thrombus generation (TMRTG): this is the time interval (minutes) observed prior to maximum speed of clot growth; maximum rate of thrombus generation (MRTG): this is the maximum velocity of clot growth observed (dynes/cm^2/second); and total thrombus generation (TTG, dynes/cm^2), the final viscoelastic resistance observed after clot formation.
O. microlepidotus. This venom was exposed to 0 or 100 μM CORM-2 in the presence of 0 or 100 μM RuCl3 in PBS for at least 5 minutes at room temperature prior to placement into plasma followed immediately with commencement of thrombelastographic analysis. The final concentration of this venom in plasma was 1 μg/ml.
Given the aforementioned, the experimental conditions utilized were: 1) V condition—venom in PBS; 2) Ru(II) condition—venom exposed to CORM-2; 3) Ru(III) condition—venom exposed to RuCl3; 4) Ru(II+III) condition—venom exposed to CORM-2 and RuCl3 simultaneously. After the 5 minute period at room temperature, 3.6 μl of one of these solutions was added to the plasma sample in the plastic thrombelastograph cup.
as §1, with “formation. […]” for “formation.”

[3] = 1 mM CORM-3, 100 μM RuCl3 or both
[4] = 100 μM CORM-2, 100 μM RuCl3 or both

| Compound | maximum rate of thrombus generation (MRTG) [1, 3] | time to maximum rate of thrombus generation (TMRTG) [1, 3] | total thrombus generation (TTG) [1, 3] | procoagulant activity of venom [2] | procoagulant activity of venom / coagulation kinetic parameters ([1]; venom exposed ≥5 min in PBS to 1 mM CORM-3, 100 μM RuCl3 or both) | maximum rate of thrombus generation (MRTG) [2, 4] | time to maximum rate of thrombus generation (TMRTG) [2, 4] | total thrombus generation (TTG) [2, 4] |
| --- | --- | --- | --- | --- | --- | --- | --- | --- |
| Tricarbonylchloro(glycinato)ruthenium [CORM-3] | no change | significant increase | no change | – | – | – | – | – |
| [Cl][Ru]([Cl])[Cl] [RuCl3, ruthenium(III) chloride] | – | – | – | did not significantly affect | no significant changes in any of the coagulation kinetic parameters | – | – | – |
| [C-]#[O+].[C-]#[O+].[C-]#[O+].[C-]#[O+].[C-]#[O+].[C-]#[O+].[Cl][Ru][Cl].[Cl][Ru][Cl] [CORM-2, tricarbonyldichlororuthenium(II) dimer] | – | – | – | significant decrease; also recorded: procoagulant activity inhibition | – | decrease | prolonged; also recorded: significant increase | decrease |

Reference: US20260216239A1 (Arizona Board of Regents on Behalf of the University of …, priority 2020, published 2026)
